How the values were obtained:
Type in all cases: cell-based
[1] = biological target: T1, human TLR7 (Homo sapiens, UniProt Q9NYK1); test: TLR7 inhibition reporter assay (HEK-Blue SEAP reporter); settings: HEK-Blue cells overexpressing human TLR7; gardiquimod 7.5 μM; 22 hour incubation
T1 construct: host or cells: HEK-Blue cells
T1 sequence (Q9NYK1 27-1049): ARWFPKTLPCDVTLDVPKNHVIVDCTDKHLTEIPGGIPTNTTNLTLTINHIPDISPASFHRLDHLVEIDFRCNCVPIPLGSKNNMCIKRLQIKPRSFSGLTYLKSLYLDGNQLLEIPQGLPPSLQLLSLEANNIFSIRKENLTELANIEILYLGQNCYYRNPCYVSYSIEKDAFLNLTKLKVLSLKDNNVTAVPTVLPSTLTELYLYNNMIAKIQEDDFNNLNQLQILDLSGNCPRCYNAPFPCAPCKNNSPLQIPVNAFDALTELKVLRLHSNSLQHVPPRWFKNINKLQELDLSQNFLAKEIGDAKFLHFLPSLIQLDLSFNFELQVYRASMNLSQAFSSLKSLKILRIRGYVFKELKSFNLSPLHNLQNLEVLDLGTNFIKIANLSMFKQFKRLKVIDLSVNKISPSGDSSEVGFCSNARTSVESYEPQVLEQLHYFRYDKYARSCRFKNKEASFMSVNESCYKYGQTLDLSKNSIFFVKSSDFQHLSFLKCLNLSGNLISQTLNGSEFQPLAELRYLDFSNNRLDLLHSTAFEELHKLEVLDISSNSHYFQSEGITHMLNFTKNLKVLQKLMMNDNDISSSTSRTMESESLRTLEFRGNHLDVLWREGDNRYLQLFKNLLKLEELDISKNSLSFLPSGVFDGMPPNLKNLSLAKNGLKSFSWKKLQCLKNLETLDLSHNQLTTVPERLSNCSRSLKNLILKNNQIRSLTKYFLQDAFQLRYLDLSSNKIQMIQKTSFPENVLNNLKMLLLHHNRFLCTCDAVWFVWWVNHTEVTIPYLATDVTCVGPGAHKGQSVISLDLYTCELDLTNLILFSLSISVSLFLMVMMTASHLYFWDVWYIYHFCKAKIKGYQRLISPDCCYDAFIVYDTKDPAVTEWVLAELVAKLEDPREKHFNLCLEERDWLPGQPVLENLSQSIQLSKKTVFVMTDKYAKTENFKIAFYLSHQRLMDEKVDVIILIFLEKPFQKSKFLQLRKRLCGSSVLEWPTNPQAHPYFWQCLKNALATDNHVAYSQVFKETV
Outline: (§1)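 HEK-Blue cells overexpressing human TLR7, TLR8 or TLR9 carry a SEAP reporter driven by NF-κB/AP-1 sites. Compounds (0.05 nM–50 μM) were preincubated 30 min at room temperature, then cells were stimulated with gardiquimod 7.5 μM (TLR7), R848 15.9 μM (TLR8) or ODN2006 5 nM (TLR9) for 22 h at 37 °C.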

[2] = biological target: T2, human TLR8 (Homo sapiens, UniProt Q9NR97); test: TLR8 inhibition reporter assay (HEK-Blue SEAP reporter); settings: HEK-Blue cells overexpressing human TLR8; R848 15.9 μM; 22 hour incubation
T2 construct: host or cells: HEK-Blue cells
T2 sequence (Q9NR97 27-1041): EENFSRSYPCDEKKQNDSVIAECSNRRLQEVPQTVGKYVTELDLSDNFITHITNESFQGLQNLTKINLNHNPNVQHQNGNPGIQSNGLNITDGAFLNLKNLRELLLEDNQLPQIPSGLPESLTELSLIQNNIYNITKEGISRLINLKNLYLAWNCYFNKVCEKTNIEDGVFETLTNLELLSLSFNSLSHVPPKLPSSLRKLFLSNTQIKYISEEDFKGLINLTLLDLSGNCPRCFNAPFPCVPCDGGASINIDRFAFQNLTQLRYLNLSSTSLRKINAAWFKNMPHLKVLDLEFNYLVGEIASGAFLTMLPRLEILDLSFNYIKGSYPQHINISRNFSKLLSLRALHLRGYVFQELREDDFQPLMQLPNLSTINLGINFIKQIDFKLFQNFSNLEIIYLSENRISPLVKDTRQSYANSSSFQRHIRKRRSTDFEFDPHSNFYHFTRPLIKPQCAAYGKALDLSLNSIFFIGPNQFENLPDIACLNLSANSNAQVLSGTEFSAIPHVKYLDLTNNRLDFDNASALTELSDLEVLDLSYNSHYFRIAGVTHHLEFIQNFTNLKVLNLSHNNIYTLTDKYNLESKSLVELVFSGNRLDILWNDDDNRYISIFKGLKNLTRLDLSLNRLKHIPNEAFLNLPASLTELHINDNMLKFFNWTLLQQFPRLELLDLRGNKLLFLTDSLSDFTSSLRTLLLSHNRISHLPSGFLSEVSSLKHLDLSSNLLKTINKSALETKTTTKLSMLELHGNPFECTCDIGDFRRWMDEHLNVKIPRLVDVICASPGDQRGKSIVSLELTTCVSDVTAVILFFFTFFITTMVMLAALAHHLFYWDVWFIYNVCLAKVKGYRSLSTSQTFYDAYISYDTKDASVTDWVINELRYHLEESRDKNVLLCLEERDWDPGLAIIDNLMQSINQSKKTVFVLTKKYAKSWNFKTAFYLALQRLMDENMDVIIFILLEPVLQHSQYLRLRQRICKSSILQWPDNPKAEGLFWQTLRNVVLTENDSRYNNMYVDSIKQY
Outline: as §1

[3] = biological target: T3, human TLR9 (Homo sapiens, UniProt Q9NR96); test: TLR9 inhibition reporter assay (HEK-Blue SEAP reporter); settings: HEK-Blue cells overexpressing human TLR9; ODN2006 5 nM; 22 hour incubation
T3 construct: host or cells: HEK-Blue cells
T3 sequence (Q9NR96 26-1032): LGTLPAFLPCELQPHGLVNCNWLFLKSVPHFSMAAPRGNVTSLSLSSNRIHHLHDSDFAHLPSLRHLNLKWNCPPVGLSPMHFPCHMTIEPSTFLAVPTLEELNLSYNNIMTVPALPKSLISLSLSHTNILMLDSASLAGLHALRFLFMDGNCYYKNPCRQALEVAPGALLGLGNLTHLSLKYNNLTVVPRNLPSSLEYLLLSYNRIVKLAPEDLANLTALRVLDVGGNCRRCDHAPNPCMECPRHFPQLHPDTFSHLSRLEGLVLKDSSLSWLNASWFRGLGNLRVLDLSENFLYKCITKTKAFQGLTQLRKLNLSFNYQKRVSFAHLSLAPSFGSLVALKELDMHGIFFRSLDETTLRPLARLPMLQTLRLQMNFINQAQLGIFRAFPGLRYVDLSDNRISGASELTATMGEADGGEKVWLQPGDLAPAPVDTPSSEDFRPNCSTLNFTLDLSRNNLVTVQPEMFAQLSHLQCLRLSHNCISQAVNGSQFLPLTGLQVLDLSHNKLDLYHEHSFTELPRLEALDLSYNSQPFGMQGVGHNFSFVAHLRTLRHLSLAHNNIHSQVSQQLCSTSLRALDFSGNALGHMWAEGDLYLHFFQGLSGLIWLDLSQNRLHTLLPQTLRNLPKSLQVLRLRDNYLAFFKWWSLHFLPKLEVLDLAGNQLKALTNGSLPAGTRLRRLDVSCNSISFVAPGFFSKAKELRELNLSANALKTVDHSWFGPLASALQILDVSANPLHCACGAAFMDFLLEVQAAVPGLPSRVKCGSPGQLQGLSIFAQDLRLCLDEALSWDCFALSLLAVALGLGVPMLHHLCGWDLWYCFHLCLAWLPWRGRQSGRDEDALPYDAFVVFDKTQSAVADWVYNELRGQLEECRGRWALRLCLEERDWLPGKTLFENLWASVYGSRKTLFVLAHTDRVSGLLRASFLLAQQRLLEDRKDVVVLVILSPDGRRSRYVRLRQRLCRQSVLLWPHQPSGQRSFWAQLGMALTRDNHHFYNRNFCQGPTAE
Outline: as §1

Row | SMILES | IC50 [1] | IC50 [2] | IC50 [3]
1 | COc1ccc(-c2[nH]c3ccc(N4CCC(OCCN(C)C)CC4)cc3c2C(C)C)cc1OC [Example 114, 2-((1-(2-(3,4-dimethoxyphenyl)-3-isopropyl-H-indol-5-yl)piperidin-4-yl)oxy)-N,N-dimethylethan-1-amine] | 460 nM | 24 nM | 951 nM
2 | CCc1c(-c2cc(OC)nc(OC)c2)[nH]c2ccc(N3CCN(C4CCN(C)CC4)CC3)cc12 [Example 156, 2-(2,6-dimethoxypyridin-4-yl)-3-ethyl-5-(4-(1-methylpiperidin-4-yl)piperazin-1-yl)-1H-indole] | 52 nM | 6.6 nM | 597 nM
3 | COc1ccc(-c2[nH]c3ccc(NC4CCC(N5CCN(C6CCN(C)CC6)CC5)CC4)cc3c2C(C)C)cc1OC (stereo not drawn) [Example 61, 2-(3,4-dimethoxyphenyl)-3-isopropyl-N-(4-(4-(1-methylpiperidin-4-yl)piperazin-1-yl)cyclohexyl)-1H-indol-5-amine] | 144 nM | 174 nM | 555 nM
4 | COc1ccc(-c2[nH]c3ccc(NC(=O)[C@@H](N)CCCCN)cc3c2C(C)C)cc1OC [Example 23, (S)-2,6-diamino-N-(2-(3,4-dimethoxyphenyl)-3-isopropyl-1H-indol-5-yl)hexanamide] | 969 nM | 433 nM | > 50000 nM
5 | CC(C)c1c(-c2ccnc3[nH]ncc23)[nH]c2ccc(NC(=O)[C@@H]3CCNC3)cc12 [Example 9, (R)—N-(3-isopropyl-2-(1H-pyrazolo[3,4-b]pyridin-4-yl)-1H-indol-5-yl)pyrrolidine-3-carboxamide] | 817 nM | 70 nM | 5660 nM
6 | COCCN1CCN(C2CCN(c3ccc4[nH]c(-c5ccc(OC)c(OC)c5)c(C(C)C)c4c3)CC2)CC1 [Example 92, 2-(3,4-dimethoxyphenyl)-3-isopropyl-5-(4-(4-(2-methoxyethyl)piperazin-1-yl)piperidin-1-yl)-1H-indole] | 19 nM | 12 nM | 1750 nM
7 | CCc1c(-c2ccc(OC)c(OC)c2)[nH]c2cc(C)c(N3CCN(CCNC)CC3)cc12 [Example 144, 2-(4-(2-(3,4-dimethoxyphenyl)-3-ethyl-6-methyl-1H-indol-5-yl)piperazin-1-yl)-N-methylethan-1-amine] | 45 nM | 45 nM | 952 nM
8 | COc1ccc(-c2[nH]c3ccc(NC4CCC(N5CCN(c6ccncc6)CC5)CC4)cc3c2C(C)C)cc1OC (stereo not drawn) [Example 60, 2-(3,4-dimethoxyphenyl)-3-isopropyl-N-(4-(4-(pyridin-4-yl)piperazin-1-yl)cyclohexyl)-1H-indol-5-amine] | 153 nM | 112 nM | 253 nM
9 | CC(C)c1c(-c2ccnc3[nH]ncc23)[nH]c2ccc(N3CCNC3=O)cc12 [Example 27, 1-(3-isopropyl-2-(1H-pyrazolo[3,4-b]pyridin-4-yl)-1H-indol-5-yl)imidazolidin-2-one] | 180 nM | 14 nM | > 50000 nM
10 | COc1ccc(-c2[nH]c3ccc(NC(=O)[C@@H](N)C4CCCCC4)cc3c2C(C)C)cc1OC [Example 26, (S)-2-amino-2-cyclohexyl-N-(2-(3,4-dimethoxyphenyl)-3-isopropyl-1H-indol-5-yl)acetamide] | 1180 nM | 194 nM | 11300 nM
11 | COc1ccc(-c2[nH]c3ccc(N4CCC(NCCN5CCOCC5)CC4)cc3c2C(C)C)cc1OC [Example 86, 1-(2-(3,4-dimethoxyphenyl)-3-isopropyl-1H-indol-5-yl)-N-(2-morpholinoethyl)piperidin-4-amine] | 41 nM | 4.8 nM | 2800 nM
12 | COc1ccc(-c2[nH]c3ccc(N4CC5(CCCNC5)C4)cc3c2C(C)C)cc1OC [Example 136, 2-(2-(3,4-dimethoxyphenyl)-3-isopropyl-H-indol-5-yl)-2,6-diazaspiro[3.5]nonane] | 542 nM | 35 nM | 2650 nM
13 | COc1ccc(-c2[nH]c3ccc(N4CC(N5CCCNCC5)C4)cc3c2C(C)C)cc1OC [Example 29, 5-(3-(1,4-diazepan-1-yl)azetidin-1-yl)-2-(3,4-dimethoxyphenyl)-3-isopropyl-1H-indole] | 760 nM | 27 nM | 3750 nM
14 | COc1ccc(-c2[nH]c3ccc(N4CCC(NCCCN(C)C)CC4)cc3c2C(C)C)cc1OC [Example 76, N1-(1-(2-(3,4-dimethoxyphenyl)-3-isopropyl-H-indol-5-yl)piperidin-4-yl)-N3,N3-dimethylpropane-1,3-diamine] | 18 nM | 7.8 nM | 782 nM
15 | CCc1c(-c2ccc(OC)c(OC)c2)[nH]c2ccc(N3CCN(C4CCN(C)CC4)CC3(C)C)cc12 [Example 172, 2-(3,4-dimethoxyphenyl)-5-(2,2-dimethyl-4-(1-methylpiperidin-4-yl)piperazin-1-yl)-3-ethyl-1H-indole] | 96 nM | 131 nM | 478 nM

From patent US11306092B2, “Amino indole compounds useful as TLR inhibitors” (BRISTOL-MYERS SQUIBB COMPANY, priority 2017, dated 2022)
